Measurements reported in patent publication US20220267376A1, “P53 ACTIVATOR PEPTIDOMIMETIC MACROCYCLES” (Merck Sharp & Dohme Corp., priority 2019, published 2022).
“Also recorded” adds a separate entry of the source. Like-named read-outs stand apart in the source and are kept apart here. Starred links: 1 amine or outer side, 2 acyl side, 3 side chain; linkers in the order of their positions; H or OH if unused. Positions of bridges follow the written chain, without caps; N, C: chain ends. Non-standard residues stand in square brackets, D forms with d. Residues, ends and D or L forms follow the SMILES beside them. ξ: configuration not given here. dPhe(4-CF3) = N[C@H](Cc1ccc(C(F)(F)F)cc1)C(=O)O; dTrp(6-F) = N[C@H](Cc1c[nH]c2cc(F)ccc12)C(=O)O; ξPhe(4-CF3) = NC(Cc1ccc(C(F)(F)F)cc1)C(=O)O; X1 = C[C@](CCCCC=[*:3])(N[*:1])C(=O)[*:2]; S8 = C=CCCCCCC[C@](C)(N)C(=O)O; R5 = C=CCCC[C@@](C)(N)C(=O)O; S5 = C=CCCC[C@](C)(N)C(=O)O

Tests used:
[1] = test system: HCT116 p53 reporter cells; experiment: p53 beta-lactamase reporter gene assay; type: cell-based; conditions: for p53 activation in reporter cells: 16 hours, up to 50 μM; for EC50: read-out: P53 activity EC50 (μM) (2% FBS) 16 H, HCT116 p53 reporter, 2% FBS, 16 H
Method: The cells were incubated overnight and followed by removal of cell growth media and replaced with Opti-MEM either containing 0% FBS or 10% FBS. […] Measurements were done using Envision multiplate reader (Perkin-Elmer).

[2] = test system: Jump-In™ T-REx™ CHO-K1 BLA cells; experiment: Tetracycline beta-lactamase reporter gene assay (counterscreen); type: cell-based; conditions: for EC50: read-out: Counterscreen EC50 (μM) (2% FBS) 16 H, 2% FBS, 16 H
Method: Cells were seeded into a 384-well plate a density of 4000 cells per well. […] Measurements were carried out using Envision multiplate reader (Perkin-Elmer).

MDM2 [3] = molecular target: T1, MDM2 (Homo sapiens, UniProt Q00987); experiment: Surface plasmon resonance (SPR) binding to MDM2; conditions: MDM2
T1 construct: GST (N); His6 (N); made in house; host or cells: E. coli BL21 (DE3) Rosetta T1R

[4] = Circular dichroism (CD) helicity of peptide in solution; type: physicochemical; conditions: 25° C.
Method: Prior to the experiment, 5 μl of the 10 mM stock peptide was mixed with 45 μl of 100% methanol, and dried for 2 hours in the SpeedVac concentrator (Thermo Scientific). The dried peptide was reconstituted in buffer, containing 1 mM HEPES pH 7.4 and 5% methanol, to a concentration of 1 mM. The peptide sample was placed in a quartz cuvette with a path length of 0.2 cm and the CD spectrum was recorded from 300 to 190 nm at 25° C., using the Chirascan-plus qCD machine (Applied Photophysics). […] An estimate of the secondary stmcture components of the peptide was carried out by converting the CD spectrum to mean residue ellipticity, before deconvoluting using the CDNN software (distributed by Applied Photophysics). All experiments were done in duplicates.

[5] = molecular target: human MDM2 protein (amino acids 1-125) (Homo sapiens, UniProt Q00987); experiment: Isothermal titration calorimetry (ITC) with MDM2; type: binding; set-up: purified recombinant human MDM2 protein (amino acids 1-125); GST (N); His6 (N); TEV cleavage site ENLYFQG (N); made in house; host or cells: E. coli BL21 (DE3) Rosetta T1R; conditions: for ITC TΔS / ITC ΔG: binding to MDM2; for ITC ΔH: enthalpy of binding to MDM2
Chain of human MDM2 protein (amino acids 1-125) (Q00987 1-125): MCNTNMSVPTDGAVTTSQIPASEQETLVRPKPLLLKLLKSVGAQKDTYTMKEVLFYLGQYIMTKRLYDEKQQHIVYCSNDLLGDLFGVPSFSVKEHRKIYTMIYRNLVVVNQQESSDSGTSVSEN
Method: All experiments were performed in duplicates using the MicroCal PEAQ-ITC Automated system. […] For peptides that are insoluble at high concentrations, reverse ITC was carded out by titrating 200 μM of MDM2 protein into 20 μM of peptide. […] Data analysis was carried out using the MicroCal PEAQ-ITC Analysis Software.

MDM4 = molecular target: T2, MDM4 (Homo sapiens, UniProt O15151); experiment: Fluorescence polarization (FP) binding to MDM4/MDMX; conditions: for Kd: FP assay, MDM4 (MDMX)
T2 construct: GST; made in house
T2 sequence (O15151 1-490): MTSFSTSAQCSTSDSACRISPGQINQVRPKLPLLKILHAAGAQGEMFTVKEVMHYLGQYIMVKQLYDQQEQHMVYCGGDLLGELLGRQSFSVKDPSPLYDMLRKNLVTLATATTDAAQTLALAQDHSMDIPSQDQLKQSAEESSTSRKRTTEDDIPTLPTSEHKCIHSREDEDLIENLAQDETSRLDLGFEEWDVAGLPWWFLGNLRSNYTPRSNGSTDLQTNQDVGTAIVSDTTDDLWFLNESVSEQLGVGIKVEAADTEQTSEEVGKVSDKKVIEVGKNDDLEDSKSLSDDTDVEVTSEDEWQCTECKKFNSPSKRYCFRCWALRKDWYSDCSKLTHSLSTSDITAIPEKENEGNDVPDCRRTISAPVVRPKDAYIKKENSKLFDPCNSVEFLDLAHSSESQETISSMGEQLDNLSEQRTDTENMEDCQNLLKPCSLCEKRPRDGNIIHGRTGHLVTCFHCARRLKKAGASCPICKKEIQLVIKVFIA

MDM2 [6] = molecular target: T1, MDM2; experiment: MDM2 binding assay, fluorescence polarization (FP) competition; conditions: for Kd: apparent Kd, competition with FAM-labeled 12/1 peptide
HCT116 cells = experiment: Lactate dehydrogenase (LDH) release assay; type: cell-based; conditions: up to 50 μM
Method: The cells were incubated overnight followed by removal of cell media and addition of Opti-MEM Medium without FBS. Cells were then treated with peptides for 4/16 hours in Opti-MEM either in 10% FBS or serum free. Final concentration of DMSO was 0.5%. […] Measurements were carried out using Tecan plate reader.

SMILES	Kd (MDM2 [3]; Table 1) [nM]	Kd (MDM2 [3]; Table 2) [nM]	CD (% helicity) [4] [%]	EC50 [1] [µM]	EC50 ([1]; listed as DPMI-δ(1-5)) [µM]	Kd (MDM4) [nM]	Kd (MDM2 [6]) [nM]	LDH leakage (HCT116 cells)	binding to MDMX in FP assay (MDM4)	binding to MDM2 in FP assay (MDM2 [6])	p53 activation in reporter cells [1]	counterscreen activity [2]	EC50 [2] [µM]	ITC TΔS [5] [kcal/mol]	ITC ΔG [5] [kcal/mol]	ITC ΔH [5] [kcal/mol]
CC(C)C[C@@H](NC(=O)[C@@H](CC(C)C)NC(=O)[C@@H](CCCCN)NC(=O)[C@@H](CCC(=O)O)NC(=O)[C@@H](Cc1ccc(C(F)(F)F)cc1)NC(=O)[C@@H](CC(N)=O)NC(=O)[C@@H](C)NC(=O)[C@@H](Cc1ccc(O)cc1)NC(=O)[C@@H](Cc1c[nH]c2cc(F)ccc12)NC(=O)[C@@H](C)NC(=O)[C@H](N)[C@H](C)O)C(=O)N[C@H](CCCNC(=N)N)C(N)=O [^DPMI-δ, reference compound]	–	–	–	–	–	–	–	–	–	–	no p53 activation	–	–	–	–	–
CC(C)C[C@@H](NC(=O)[C@@]1(C)CCC/C=C\CCC[C@@](C)(NC(=O)[C@@H](C)NC(=O)[C@@H](Cc2ccc(O)cc2)NC(=O)[C@@H](Cc2c[nH]c3cc(F)ccc23)NC(=O)[C@@H](C)NC(=O)[C@H](N)[C@H](C)O)C(=O)N[C@H](Cc2ccc(C(F)(F)F)cc2)C(=O)N[C@H](CCC(=O)O)C(=O)N[C@H](CCCCN)C(=O)N1)C(=O)N[C@H](CCCNC(=N)N)C(N)=O [^DPMI-δ (6-10)]	59	–	39.9	–	–	–	–	–	no binding	no binding; also recorded: non-binder	–	–	–	-1.86	-11.2	-9.35
CC(C)C[C@@H](NC(=O)[C@@H](CC(C)C)NC(=O)[C@@]1(C)CCCC/C=C\CCC[C@@](C)(NC(=O)[C@@H](Cc2ccc(O)cc2)NC(=O)[C@@H](Cc2c[nH]c3cc(F)ccc23)NC(=O)[C@@H](C)NC(=O)[C@H](N)[C@H](C)O)C(=O)N[C@H](CC(N)=O)C(=O)N[C@H](Cc2ccc(C(F)(F)F)cc2)C(=O)N[C@H](CCC(=O)O)C(=O)N1)C(=O)N[C@H](CCCNC(=N)N)C(N)=O [^DPMI-δ (5-9)] (H-[dT][dA][dTrp(6-F)][dY][R5][dN][dPhe(4-CF3)][dE][X1][dL][dL][dR]-NH2; staple (Z) 5-9)	29	–	38.0	–	–	–	–	did not cause LDH leakage	no binding	no binding	unable to activate cellular p53	–	47	–	–	–

Further lines, with some results ahead:

Kd (MDM2 [3]; Table 1) [nM]	Kd (MDM2 [3]; Table 2) [nM]	CD (% helicity) [4] [%]	EC50 [1] [µM]	EC50 ([1]; listed as DPMI-δ(1-5)) [µM]	Kd (MDM4) [nM]	Kd (MDM2 [6]) [nM]	LDH leakage (HCT116 cells)	binding to MDMX in FP assay (MDM4)	binding to MDM2 in FP assay (MDM2 [6])	SMILES	p53 activation in reporter cells [1]	counterscreen activity [2]	EC50 [2] [µM]	ITC TΔS [5] [kcal/mol]	ITC ΔG [5] [kcal/mol]	ITC ΔH [5] [kcal/mol]
< 1	< 1	24.7	13.7	17.5	4.5	13.2	–	–	–	CC(C)C[C@@H](NC(=O)[C@@H](CC(C)C)NC(=O)[C@@H](CCCCN)NC(=O)[C@@H](CCC(=O)O)NC(=O)[C@@H](Cc1ccc(C(F)(F)F)cc1)NC(=O)[C@@H](CC(N)=O)NC(=O)[C@@]1(C)CCCCCC/C=C\CCC[C@@](C)(N)C(=O)N[C@H](C)C(=O)N[C@H](Cc2c[nH]c3cc(F)ccc23)C(=O)N[C@H](Cc2ccc(O)cc2)C(=O)N1)C(=O)N[C@H](CCCNC(=N)N)C(N)=O [^DPMI-δ (1-5)]	–	didn't exhibit activity	≥ 50	3.04	-11.6	-15.8
< 1	< 1	20	34.6	–	2.1	–	No detectable LDH leakage	–	–	CC(C)C[C@H]1NC(=O)[C@@H](CC(C)C)NC(=O)[C@@](C)(NC(=O)[C@@H](CCC(=O)O)NC(=O)[C@@H](Cc2ccc(C(F)(F)F)cc2)NC(=O)[C@@H](CC(N)=O)NC(=O)[C@@]2(C)CCC/C=C\CCC[C@@](C)(N)C(=O)N[C@H](C)C(=O)N[C@H](Cc3c[nH]c4cc(F)ccc34)C(=O)N[C@H](Cc3ccc(O)cc3)C(=O)N2)CCC/C=C\CCC[C@](C)(C(N)=O)NC1=O [^DPMI-δ (1-5,9-12)] (H-[R5][dA][dTrp(6-F)][dY][R5][dN][dPhe(4-CF3)][dE][S5][dL][dL][R5]-NH2; staple (Z) 1-5, 9-12)	–	negligible counter screen activity	≥ 50	–	–	–
7.4	–	26.5	–	–	–	3350	did not cause LDH leakage	no binding	no binding	CC(C)C[C@@H](NC(=O)[C@@H](CC(C)C)NC(=O)[C@@]1(C)CCC/C=C\CCCCCC[C@](C)(NC(=O)[C@H](N)[C@H](C)O)C(=O)N[C@H](Cc2c[nH]c3cc(F)ccc23)C(=O)N[C@H](Cc2ccc(O)cc2)C(=O)N[C@H](C)C(=O)N[C@H](CC(N)=O)C(=O)NC(Cc2ccc(C(F)(F)F)cc2)C(=O)N[C@H](CCC(=O)O)C(=O)N1)C(=O)N[C@H](CCCNC(=N)N)C(N)=O (stereo partly drawn) [^DPMI-(2-9)] (H-[dT][S8][dTrp(6-F)][dY][dA][dN][ξPhe(4-CF3)][dE][R5][dL][dL][dR]-NH2; staple (Z) 2-9)	unable to activate cellular p53	–	≥ 50	–	–	–
